Measured values: US12479847B2 (DANA-FARBER CANCER INSTITUTE, INC., priority 2019, dated 2025)

How the values were obtained:
Test in all cases: KINOMEscan (ScanMAX) kinase profiling
Format in all cases: binding
[1] = target: T1, panel of 468 kinases (Homo sapiens, UniProt Q8TD19); conditions: NEK9; 1 μM; read-out: % control
T1 construct: purchased KINOMEscan (ScanMAX) service
T1 sequence (Q8TD19 1-979): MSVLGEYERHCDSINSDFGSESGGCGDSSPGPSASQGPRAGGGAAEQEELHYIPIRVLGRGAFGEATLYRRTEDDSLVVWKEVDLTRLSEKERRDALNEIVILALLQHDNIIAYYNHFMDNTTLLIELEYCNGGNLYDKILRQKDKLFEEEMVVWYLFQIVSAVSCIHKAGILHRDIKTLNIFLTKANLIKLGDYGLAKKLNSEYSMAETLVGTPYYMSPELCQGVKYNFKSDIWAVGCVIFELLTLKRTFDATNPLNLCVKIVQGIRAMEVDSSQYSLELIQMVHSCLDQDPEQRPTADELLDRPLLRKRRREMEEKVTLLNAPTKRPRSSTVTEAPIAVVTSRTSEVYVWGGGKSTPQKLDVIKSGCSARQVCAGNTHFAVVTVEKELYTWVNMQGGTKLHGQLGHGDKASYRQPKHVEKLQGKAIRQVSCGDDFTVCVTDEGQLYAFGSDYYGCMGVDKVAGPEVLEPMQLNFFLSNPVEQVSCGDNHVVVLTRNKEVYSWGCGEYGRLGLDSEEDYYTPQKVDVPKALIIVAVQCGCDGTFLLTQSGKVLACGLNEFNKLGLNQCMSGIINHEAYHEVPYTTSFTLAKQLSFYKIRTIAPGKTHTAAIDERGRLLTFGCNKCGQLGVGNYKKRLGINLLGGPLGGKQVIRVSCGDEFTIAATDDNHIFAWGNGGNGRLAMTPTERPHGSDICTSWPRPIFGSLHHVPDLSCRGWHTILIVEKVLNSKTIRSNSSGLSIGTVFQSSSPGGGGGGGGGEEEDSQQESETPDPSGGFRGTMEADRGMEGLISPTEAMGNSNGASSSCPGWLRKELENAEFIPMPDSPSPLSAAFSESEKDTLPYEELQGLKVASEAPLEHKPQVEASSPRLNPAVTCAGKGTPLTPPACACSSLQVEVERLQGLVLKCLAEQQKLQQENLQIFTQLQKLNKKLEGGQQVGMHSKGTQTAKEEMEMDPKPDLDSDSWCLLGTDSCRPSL

[2] = target: T2, panel of 468 kinases (Homo sapiens, UniProt P46734); conditions: MEK3; 1 μM; read-out: % control
T2 construct: purchased KINOMEscan (ScanMAX) service
T2 sequence (P46734 1-347): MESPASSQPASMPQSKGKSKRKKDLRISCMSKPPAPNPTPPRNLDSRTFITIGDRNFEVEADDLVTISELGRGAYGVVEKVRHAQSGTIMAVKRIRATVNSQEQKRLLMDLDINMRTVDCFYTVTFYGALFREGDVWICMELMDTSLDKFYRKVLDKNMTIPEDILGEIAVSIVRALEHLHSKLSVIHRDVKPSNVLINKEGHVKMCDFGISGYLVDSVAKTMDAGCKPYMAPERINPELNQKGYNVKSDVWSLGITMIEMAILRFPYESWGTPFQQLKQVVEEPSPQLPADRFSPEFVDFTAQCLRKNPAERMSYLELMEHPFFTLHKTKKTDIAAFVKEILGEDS

[3] = target: T3, panel of 468 kinases (Homo sapiens, UniProt Q9UBE8); conditions: NLK; 1 μM; read-out: % control
T3 construct: purchased KINOMEscan (ScanMAX) service
T3 sequence (Q9UBE8 1-527): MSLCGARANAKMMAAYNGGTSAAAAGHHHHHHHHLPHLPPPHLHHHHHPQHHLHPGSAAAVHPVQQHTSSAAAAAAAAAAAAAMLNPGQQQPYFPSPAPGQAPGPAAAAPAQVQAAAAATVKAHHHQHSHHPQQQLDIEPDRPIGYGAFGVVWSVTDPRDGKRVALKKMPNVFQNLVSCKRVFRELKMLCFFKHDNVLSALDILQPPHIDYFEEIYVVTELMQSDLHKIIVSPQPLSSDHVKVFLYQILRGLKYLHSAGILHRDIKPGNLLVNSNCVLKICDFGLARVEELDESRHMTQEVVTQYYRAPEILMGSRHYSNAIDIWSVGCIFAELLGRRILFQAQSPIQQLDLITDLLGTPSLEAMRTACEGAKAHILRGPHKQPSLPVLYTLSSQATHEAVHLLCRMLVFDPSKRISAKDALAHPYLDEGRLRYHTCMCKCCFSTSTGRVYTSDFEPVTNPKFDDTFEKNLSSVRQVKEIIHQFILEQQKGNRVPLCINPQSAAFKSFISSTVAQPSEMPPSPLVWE

[4] = target: T4, panel of 468 kinases (Homo sapiens, UniProt P00533); conditions: EGFR; 1 μM; read-out: % control
T4 construct: purchased KINOMEscan (ScanMAX) service
T4 sequence (P00533 25-1210): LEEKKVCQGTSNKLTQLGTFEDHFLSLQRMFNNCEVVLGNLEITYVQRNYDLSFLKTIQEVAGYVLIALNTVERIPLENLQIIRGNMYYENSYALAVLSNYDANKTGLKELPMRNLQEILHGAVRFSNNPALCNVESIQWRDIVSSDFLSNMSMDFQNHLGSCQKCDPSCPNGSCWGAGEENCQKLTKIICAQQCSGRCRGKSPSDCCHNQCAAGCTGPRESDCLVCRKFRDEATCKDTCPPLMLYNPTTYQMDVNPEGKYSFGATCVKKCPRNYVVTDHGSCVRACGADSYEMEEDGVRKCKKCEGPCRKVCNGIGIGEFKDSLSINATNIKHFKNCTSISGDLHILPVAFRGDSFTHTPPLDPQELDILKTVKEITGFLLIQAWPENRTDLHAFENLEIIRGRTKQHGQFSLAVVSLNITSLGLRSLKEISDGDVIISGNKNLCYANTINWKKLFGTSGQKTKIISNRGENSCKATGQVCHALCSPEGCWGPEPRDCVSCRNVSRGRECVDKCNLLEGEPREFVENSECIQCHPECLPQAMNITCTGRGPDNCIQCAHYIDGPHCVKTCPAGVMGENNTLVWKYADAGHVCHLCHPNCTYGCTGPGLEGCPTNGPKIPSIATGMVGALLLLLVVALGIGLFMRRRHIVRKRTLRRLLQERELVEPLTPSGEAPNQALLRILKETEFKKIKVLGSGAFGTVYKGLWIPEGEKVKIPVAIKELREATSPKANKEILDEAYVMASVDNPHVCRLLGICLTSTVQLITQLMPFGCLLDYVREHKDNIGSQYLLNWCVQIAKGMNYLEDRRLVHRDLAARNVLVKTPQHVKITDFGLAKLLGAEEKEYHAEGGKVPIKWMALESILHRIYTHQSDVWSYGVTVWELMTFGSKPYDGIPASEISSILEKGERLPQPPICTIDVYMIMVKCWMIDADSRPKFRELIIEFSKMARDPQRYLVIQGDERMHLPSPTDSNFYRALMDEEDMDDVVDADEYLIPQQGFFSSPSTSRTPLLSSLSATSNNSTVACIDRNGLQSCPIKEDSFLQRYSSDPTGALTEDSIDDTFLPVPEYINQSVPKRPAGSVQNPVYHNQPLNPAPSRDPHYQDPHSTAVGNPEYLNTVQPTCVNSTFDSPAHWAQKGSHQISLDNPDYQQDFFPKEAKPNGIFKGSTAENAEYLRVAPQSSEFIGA

[5] = target: T5, panel of 468 kinases (Homo sapiens, UniProt P36897); conditions: TGFBR1; 1 μM; read-out: % control
T5 construct: purchased KINOMEscan (ScanMAX) service
T5 sequence (P36897 34-503): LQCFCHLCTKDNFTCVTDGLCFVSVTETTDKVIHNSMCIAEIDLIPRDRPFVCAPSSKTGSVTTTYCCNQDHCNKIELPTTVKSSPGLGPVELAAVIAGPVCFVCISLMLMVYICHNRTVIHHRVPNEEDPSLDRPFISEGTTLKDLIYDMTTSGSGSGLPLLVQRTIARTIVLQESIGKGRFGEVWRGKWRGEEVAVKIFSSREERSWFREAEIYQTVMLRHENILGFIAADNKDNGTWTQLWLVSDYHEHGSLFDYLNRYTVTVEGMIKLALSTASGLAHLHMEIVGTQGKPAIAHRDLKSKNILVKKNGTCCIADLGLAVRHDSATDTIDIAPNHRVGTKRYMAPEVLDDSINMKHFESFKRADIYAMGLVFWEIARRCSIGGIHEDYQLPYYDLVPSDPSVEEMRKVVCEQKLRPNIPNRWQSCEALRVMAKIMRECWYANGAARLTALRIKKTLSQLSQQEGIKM

[6] = target: T6, panel of 468 kinases (Homo sapiens, UniProt Q8IVW4); conditions: CDKL3; 1 μM; read-out: % control
T6 construct: purchased KINOMEscan (ScanMAX) service
T6 sequence (Q8IVW4 whole entry): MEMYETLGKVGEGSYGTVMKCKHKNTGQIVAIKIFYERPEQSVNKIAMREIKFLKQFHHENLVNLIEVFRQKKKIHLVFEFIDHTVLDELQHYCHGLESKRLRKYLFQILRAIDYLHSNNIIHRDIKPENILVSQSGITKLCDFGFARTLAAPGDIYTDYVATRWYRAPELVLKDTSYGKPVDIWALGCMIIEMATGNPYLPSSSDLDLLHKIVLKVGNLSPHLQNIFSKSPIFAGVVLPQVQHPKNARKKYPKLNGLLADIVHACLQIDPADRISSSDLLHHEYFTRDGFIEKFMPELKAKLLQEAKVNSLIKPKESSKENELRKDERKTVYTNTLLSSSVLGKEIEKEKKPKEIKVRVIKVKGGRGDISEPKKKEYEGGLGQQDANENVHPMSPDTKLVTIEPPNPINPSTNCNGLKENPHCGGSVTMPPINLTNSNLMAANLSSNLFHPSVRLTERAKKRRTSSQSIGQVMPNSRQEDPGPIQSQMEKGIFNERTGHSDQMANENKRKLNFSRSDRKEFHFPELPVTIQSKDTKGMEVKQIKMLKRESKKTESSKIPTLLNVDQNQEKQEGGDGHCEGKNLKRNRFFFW

[7] = target: T7, panel of 468 kinases (Homo sapiens, UniProt Q86UX6); conditions: YANK3; 1 μM; read-out: % control
T7 construct: purchased KINOMEscan (ScanMAX) service
T7 sequence (Q86UX6 whole entry): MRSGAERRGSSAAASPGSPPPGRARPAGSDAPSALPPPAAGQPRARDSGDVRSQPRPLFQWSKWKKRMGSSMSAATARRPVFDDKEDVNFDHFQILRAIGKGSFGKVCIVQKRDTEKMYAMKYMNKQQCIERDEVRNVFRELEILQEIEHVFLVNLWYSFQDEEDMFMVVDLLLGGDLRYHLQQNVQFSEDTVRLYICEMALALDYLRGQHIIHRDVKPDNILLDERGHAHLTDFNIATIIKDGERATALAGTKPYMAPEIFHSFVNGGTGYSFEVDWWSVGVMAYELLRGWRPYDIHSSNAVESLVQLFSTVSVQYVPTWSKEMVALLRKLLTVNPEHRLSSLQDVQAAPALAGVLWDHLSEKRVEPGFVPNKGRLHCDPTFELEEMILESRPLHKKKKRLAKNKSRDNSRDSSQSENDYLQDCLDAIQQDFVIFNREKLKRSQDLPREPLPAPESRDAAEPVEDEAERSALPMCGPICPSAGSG

Row | SMILES | remaining binding at 1 µM [1] [%] | remaining binding at 1 µM [2] [%] | remaining binding at 1 µM [3] [%] | remaining binding at 1 µM [4] [%] | remaining binding at 1 µM [5] [%] | remaining binding at 1 µM [6] [%] | remaining binding at 1 µM [7] [%]
1 | CNc1nc(Nc2ccc(C(=O)N3CCC(N4CCOCC4)CC3)c3c2OCO3)nc2[nH]cc(Cl)c12 [Compound 75, (7-((5-chloro-4-(methylamino)-7H-pyrrolo[2,3-d]pyrimidin-2-yl)amino)benzo[d][1,3]dioxol-4-yl)(4-morpholinopiperidin-1-yl)methanone] | 100 | 2.4 | 100 | 80 | 68 | 100 | 100
2 | CNc1nc(Nc2ccc(S(=O)(=O)N3CCC(N4CCOCC4)CC3)cc2OC)nc2[nH]cc(Cl)c12 [Compound 12, 5-chloro-N2-(2-methoxy-4-((4-morpholinopiperidin-1-yl)sulfonyl)phenyl)-N4-methyl-7H-pyrrolo[2,3-d]pyrimidine-2,4-diamine] | 100 | 26 | 100 | 89 | 86 | 100 | 100
3 | CNc1nc(Nc2ccc(P3(=O)CCN(C4CCOCC4)CC3)cc2OC)nc2[nH]cc(Cl)c12 [Compound 77, 4-(4-((5-chloro-4-(methylamino)-7H-pyrrolo[2,3-d]pyrimidin-2-yl)amino)-3-methoxyphenyl)-1-(tetrahydro-2H-pyran-4-yl)-1,4-azaphosphinane 4-oxide] | 100 | 9.4 | 100 | 84 | 72 | 100 | 100
